Earlier results as cited in patent US6576227B1, “Peroxidase-activating oral compositions” (Oraceutical Innovative Properties, LLC, priority 1995, dated 2003).

Key:
cellular DNA = details: elevated concentrations (greater than about 0.1 percent or about 29 millimoles per liter)
[1] = 20° C.

| SMILES | mutagenicity and cellular DNA damage (cellular DNA) | water solubility [1] | concentration of saturated solution ([1]; water) | pH upon dissolution, 1% solution (1% solution in water) | pH, saturated solution (saturated solution in water) |
| --- | --- | --- | --- | --- | --- |
| OO [hydrogen peroxide] | mutagenic |  |  |  |  |
| NC(N)=O.OO [Carbamide peroxide] |  | 800 grams per liter | 44.4% | approximately 4.05 | approximately 3.40 |
